# B1: IL-1α: recombinant murine interleukin-1 alpha (protein, UniProt P01582 115-270, looked up)
# Interleukin-1 alpha: SAPYTYQSDLRYKLMKLVRQKFVMNDSLNQTIYQDVDKHYLSTTWLNDLQQEVKFDMYAYSSGGDDSKYPVTLKISDSQLFVSAQGEDQPVLLKELPETPKLITGSETDLIFFWKSINSKNYFTSAAYPELFIATKEQSRVHLARGLPSMTDFQIS
# B2: IL-1β: recombinant murine interleukin-1 beta (protein, UniProt P10749 118-269, looked up)
# Interleukin-1 beta: VPIRQLHYRLRDEQQKSLVLSDPYELKALHLNGQNINQQVIFSMSFVQGEPSNDKIPVALGLKGKNLYLSCVMKDGTPTLQLESVDPKQYPKKKMEKRFVFNKIEVKSKVEFESAEFPNWYISTSQAEHKPVFLGNNSGQDIIDFTMESVSS
# How the values were obtained:
# [1] = test system: ABAE cells; assay: Detection of PS on cultured endothelial cells by 125I-labeled annexin V; format: cell-based, bovine; conditions: for 125I-Annexin V (% of Max binding), ABAE cells: 24 h, concentration as listed per treatment; for anionic phospholipid-exposure (% of the maximum): ABAE cells, hypoxia/reoxygenation in the presence of sub-toxic cytokine
# Description: (§1) All reagents were diluted in medium containing 10% serum and incubated with the cells at 37° C. for 24 h.
# (§2) To study the effect of hypoxia, cells were seeded on 24 well plates and were incubated in a humidified normoxic atmosphere (21% O2. 5% CO2) for 48 h before being transferred to a humidified hypoxic atmosphere (1% O2, 5% CO2, 94% N2) in a sealed chamber (Billups Rothenberg Inc., Del Mar, Calif.). Cells were incubated in a hypoxic chamber for 24 h at 37° C. and were then returned to a normoxic environment for 4 h at 37° C. The cells were compared to a parallel culture from an identical passage, seeded on the same day and maintained entirely under normoxic conditions. In some studies, IL-1α (10 ng/ml) and TNFα (20 ng/ml) were added to the medium before transfer to the hypoxic chamber.
# (§3) After treatment with the reagents described above, treated and control cells were incubated with 7.1 pmoles of ^125I-labeled annexin V (200 μl/well) in the binding buffer. After 2 h incubation at room temperature, cells were washed extensively and dissolved in 0.5 M of NaOH. The entire volume of 0.5 ml was transferred to plastic tubes and counted in a gamma counter. Non-specific binding was determined in the presence of 5 mM EDTA and was subtracted from experimental values. The results were expressed as net pmoles of cell-bound annexin V, normalized per 1×10^6 cells.
# (§4) Maximal binding of annexin V was determined on cells simultaneously treated with actinomycin D and TNFα (50 ng/ml of each component). As has been previously reported, these agents cause apoptosis and PS exposure in 90-100% of endothelial cells (Lucas et al., 1998). Basal binding of ^125I-annexin V to untreated cells was determined in the presence of medium with 10% serum. The amount of ^125I-annexin V that bound to the untreated cultures was subtracted from that in the treated cultures. Exposure of PS was calculated according to the following formula: cell-bound annexin V (pmoles) under experimental conditions divided by maximal annexin V binding (pmoles), multiplied by 100. Each study was performed in duplicate and was performed at least three times. Mean values were calculated. The SE of the mean values from three separate experiments was less than 5%.
# [2] = test system: bEnd.3 cells; assay: as above; format: cell-based, mouse; conditions: for 125I-Annexin V (% of Max binding), bEnd.3 cells: 24 h, concentration as listed per treatment
# Description: as §1, §2, §3, §4
# [3] = test system: bEnd.3 endothelial cells; assay: Induction of PS by H2O2: anti-PS IgM staining and Trypan Blue exclusion
# [4] = test system: Mouse melanoma B16; assay: PS exposure on tumor cells by FACS (3G4 binding), B16; format: cell-based; conditions: docetaxel, compared with untreated cells
# [5] = test system: human umbilical vein endothelial cells (HUVEC); assay: PS exposure on endothelial cells by FACS (3G4 binding), HUVEC; format: cell-based; conditions: 10 nM docetaxel, 24 hrs, compared to untreated cells
# Description: (§5) The induction of PS exposure on endothelial cells by subclinical concentrations of docetaxel was examined in vitro by FACS analysis. Human umbilical vein endothelial cells (HUVEC) and human microvessel endothelial cells (HMVEC) were treated with 10 nM of docetaxel for 24 hrs and examined by FACS. […] Docetaxel incubations for 48 and 72 hrs were also conducted.
# [6] = test system: mouse firbrosarcoma Meth A; assay: PS exposure on tumor cells by FACS (3G4 binding), Meth A; format: cell-based; conditions: docetaxel, compared with untreated cells
# [7] = breast cancer patients; cited from earlier work
# [8] = test system: human microvessel endothelial cells (HMVEC); assay: PS exposure on endothelial cells by FACS (3G4 binding), HMVEC; format: cell-based; conditions: 10 nM docetaxel, 24 hrs, compared to untreated cells
# Description: as §5
# [9] = test system: HUVEC and HMVEC; assay: Induction of PS exposure on endothelial cells by docetaxel (FACS, 3G4 binding); format: cell-based, human; conditions: 10 nM, 24 hrs
# Description: (§6) FIG. 24A and FIG. 24B. Induction of PS exposure on endothelial cells by docetaxel. Human umbilical vein endothelial cells (HUVEC) and human microvessel endothelial cells (HMVEC) were treated with 10 nM of docetaxel for 24 hrs. […] The cells were then washed twice, FITC labeled goat anti-mouse IgG was added and the cells incubated for a further 30 mins. on ice. The cells were then washed and analyzed by FACS using a FACSCalibur cytometer (Becton-Dickinson, San Jose, Calif.) with CellQuest acquisition software.
# as §5
# [10] = test system: mouse colon carcinoma Colo26; assay: PS exposure on tumor cells by FACS (3G4 binding), Colo26; format: cell-based; conditions: 10 nM docetaxel, 24 hrs, compared with untreated cells
# Description: (§7) The in vitro induction of PS exposure by subclinical concentrations of docetaxel was also examined by FACS analysis using a panel of tumor cell lines. Mouse lewis lung carcinoma 3 LL, mouse colon carcinoma Colo26 and human breast cancer MDA-MB-435 cells were treated with 10 nM of docetaxel for 24 hrs and examined by FACS. […] Docetaxel incubations for 48 and 72 hrs were also conducted.
# [11] = test system: tumor cell lines; assay: Induction of PS exposure on tumor cell lines by docetaxel (FACS); format: cell-based; conditions: 10 nM, 24 hrs
# Description: as §6, with “25A, FIG. 25B” for “24A”, “25C.” for “24B.”, “tumor cell lines” for “endothelial cells”, “Mouse lewis lung carcinoma 3LL, mouse colon carcinoma Colo26” for “Human umbilical vein endothelial cells (HUVEC)”, “breast cancer MDA-MB-435” for “microvessel endothelial”, “cells” for “cells (HMVEC)”
# FIG. 26. Induction of PS exposure on human breast cancer MDA-MB-231 cells by docetaxel. Human breast cancer MDA-MB-231 cells were treated with 10 nM of docetaxel for 24 hrs. […] The cells were then washed twice, FITC labeled anti-IgG was added and the cells analyzed by FACS, as above. There is a significant increase in ch3G4 binding as compared to control, human IgG.
# as §7
# [12] = test system: human breast cancer MDA-MB-435 cells; assay: PS exposure on tumor cells by FACS (3G4 binding), MDA-MB-435; format: cell-based; conditions: 10 nM docetaxel, 24 hrs, compared with untreated cells
# Description: as §7
# [13] = test system: Mouse lewis lung carcinoma 3 LL; assay: PS exposure on tumor cells by FACS (3G4 binding), 3LL; format: cell-based; conditions: 3 LL cells, 10 nM docetaxel, 24 hrs, compared with untreated cells
# Description: as §7
# [14] = patients having progressive disease before treatment; cited from earlier work
Molecule,"125I-Annexin V (% of Max binding), ABAE cells [1]","125I-Annexin V (% of Max binding), bEnd.3 cells [2]",also measured
Hypoxia + IL-1α: IL-1α (10 ng/ml) under hypoxia/reoxygenation,26.0%,31.0%,
IL-10: interleukin-10,0%,0%,
TNFα,7.4%,13.7%,anionic phospholipid-exposure (% of the maximum) [1]: 33%
"OO [Hydrogen peroxide, hydrogen peroxide]",95.5%,98.4%,"externalization of PS by 125I-annexin V binding ([1]; 100 to 200 μM, both cell types): 95%; cells that bound biotinylated annexin V (immunohistochemically) ([1]; ABAE and bEnd.3 cells, 100 to 200 μM): More than 70%; cells with translocation of anionic phospholipids to the external surface (125I-labeled annexin V) ([2]; 200 μM for 2 h): 70-90%; cells with PS detected at the cell surface ([3]; concentrations as low as 20 μM): about 50%; cell viability ([3]; high concentrations, 1 hour): 50-60%; cells with PS translocation ([3]; high concentrations, 1 hour): ~90%; cell viability ([3]; low levels of H2O2, identical to untreated cells): 95%"
Thrombin,8.8%,17.4%,
FGF-2: human fibroblast growth factor-2,0%,0%,
VEGF,0%,0%,
TGF β1: growth factor,0%,0%,
CC(=O)O[C@@]12CO[C@@H]1C[C@H](O)[C@@]1(C)C(=O)[C@H](O)C3=C(C)[C@@H](OC(=O)[C@H](O)[C@@H](NC(=O)OC(C)(C)C)c4ccccc4)C[C@@](O)([C@@H](OC(=O)c4ccccc4)[C@H]21)C3(C)C [docetaxel],,,"3G4 binding by FACS (PS exposure) [4]: significant increase in 3G4 binding; 3G4 binding by FACS (PS exposure) [5]: significant increase in 3G4 binding; 3G4 binding by FACS (PS exposure) [6]: significant increase in 3G4 binding; serum cytokine levels and NK/LAK cell activity [7]: increase in serum IFN-γ, IL-2, IL-6 and GM-CSF cytokine levels and enhancement of NK and LAK cell activity; 3G4 binding by FACS (PS exposure) [8]: significant increase in 3G4 binding; 3G4 binding vs. untreated cells ([9]; HMVEC): significant increase in 3G4 binding; 3G4 binding vs. untreated cells ([9]; HUVEC): significant increase in 3G4 binding; 3G4 binding by FACS (PS exposure) [10]: significant increase in 3G4 binding; 3G4 binding vs. untreated cells ([11]; 3LL, Colo26, MDA-MB-435 cells): significant increase in 3G4 binding; antibody (ch3G4) binding to treated cells ([11]; MDA-MB-231, vs. human IgG): significant increase in antibody binding; 3G4 binding by FACS (PS exposure) [12]: significant increase in 3G4 binding; 3G4 binding by FACS (PS exposure) [13]: significant increase in 3G4 binding"
IL-8: interleukin-8,0%,0%,
Scatter factor: recombinant hepatocyte growth factor (HGF or scatter factor),0%,0%,
Interferon,8.6%,2.8%,
"NC(=O)c1nnn(Cc2cc(Cl)c(C(=O)c3ccc(Cl)cc3)c(Cl)c2)c1N [CAI, carboxyamidotriazole]",,,cancer patients with disease stabilization [14]: 49%
IL-6: interleukin-6,0%,0%,
B1,6.4%,7.5%,anionic phospholipid-exposure (% of the maximum) [1]: 26%
B2,5.8%,5.5%,

# — patent US7678386B2, “Liposomes coated with selected antibodies that bind to aminophospholipids” (Board of Regents the University of Texas, priority 2002, dated 2010)
